Data on one molecule can be found in patent US20180312237A1, “BALLAST WATER TREATMENT DEVICE AND BALLAST WATER TREATMENT METHOD” (Kuraray Co., Ltd., priority 2015, published 2018).

The test system of data set [1] is heterotrophic bacteria. The experiment in a line: Number of heterotrophic bacteria (seawater medium) in sampled ballast water. The format is cell-based. Here is the method:
In the present example, using a ballast water treatment device 100 shown in FIG. 8, 100 m^3 of seawater was supplied to a ballast tank 60 with a capacity of about 200 m^3. Specifically, first, a ballast pump 10 was activated to take in seawater from a pipe port 2A of a main pipe 2 by pump pressure. Microbes or particles in the seawater were removed by allowing the seawater to pass through a filter 20.
Next, by pouring a solution of TRO 2000 mg/L with dissolved sodium dichloroisocyanurate from a sterilizing component-introducing unit 40 to the seawater after being filtered by the above filter, the seawater was made to include a chlorine component. […]
(§1) With respect to each of the above sampled three kinds of ballast water (the ballast water immediately after filling, the ballast water after a lapse of 10 days after filling, and the ballast water in the ballast tank after the ballast water circulation), a TRO concentration and the number of heterotrophic bacteria (seawater medium) were measured. Additionally, as a comparison, the number of heterotrophic bacteria of the seawater was measured. As the TRO concentration, a value measured by a DPD colorimeter II (product of Hach Company) was adopted.

Data set [2] can be described thus: TRO concentration of sampled ballast water, DPD colorimeter II. The class given is physicochemical. The procedure:
The ballast water treatment device 1 further includes a concentration measurement unit 41. […] The concentration measurement unit 41 is a sensor for measuring a chlorine concentration of ballast water in the ballast tank 60. Here, a “chlorine concentration (mg/L)” is measured as a total residual oxidant (TRO) concentration of seawater. The TRO concentration can be measured by a measuring instrument using a DPD reagent or the like. […] While in the present embodiment, the concentration measurement unit 41 is attached to the ballast tank 60, the position of the concentration measurement unit 41 is not limited thereto but can be any position that enables a concentration of a sterilizing component of the ballast water in the ballast tank 60 to be measured. For example, the concentration measurement unit 41 may be attached to the circulation pipe 80, or the concentration measurement unit 41 may be attached to the detour pipe 90, or the concentration measurement unit 41 may be attached to the main pipe 2 between the first connection part 2C and the second connection part 2D.
Next, by pouring a solution of TRO 2000 mg/L with dissolved sodium dichloroisocyanurate from a sterilizing component-introducing unit 40 to the seawater after being filtered by the above filter, the seawater was made to include a chlorine component. By stirring the seawater including a chlorine component by a mixer 50, a chlorine component in the seawater was made uniform to become ballast water, and the ballast tank 60 was filled with the ballast water. […]
as §1

Where [3] appears, read: ballast water after a lapse of 10 days after filling.

SMILES strings stand for the structures.

For the molecule `O=c1[n-]c(=O)n(Cl)c(=O)n1Cl.[Na+]` [sodium dichloroisocyanurate], the “The number of bacteria” value in data set [1] (setting [3]) is 4.6 × 10^5 cfu/cc; in data set [1] (ballast water immediately after filling, filtered seawater with poured TRO 2000 mg/L solution) it was 7.4 × 10^1 cfu/cc. The results for the TRO concentration in data set [2] (setting [3]), in data set [2] (ballast water after circulation with additional sterilizing component) and in data set [2] (ballast water immediately after filling) were 0.2 mg/L, 3.2 mg/L and 5.0 mg/L, respectively.
